Measurements published in patent US20170348375A1, “DISLODGEMENT AND RELEASE OF HSC FROM THE BONE MARROW STEM CELL NICHE USING ALPHA9 INTEGRIN ANTAGONISTS” (COMMONWEALTH SCIENTIFIC AND INDUSTRIAL RESEARCH ORGANISATION, priority 2014, published 2017).
Entries after “also recorded” stand apart in the source; their conditions may differ.

How the values were obtained:
[1] = molecular target: T1, α9β1 integrin (Homo sapiens, UniProt P05556+Q13797); assay: Competitive inhibition of R-BC154 binding to α9β1 LN18 cells; conditions: 1 mM Ca2+/Mg2+
T1 construct: expressed in transfected cells; host or cells: human glioblastoma LN18 (ATCC CRL-2610), retrovirally transduced; α4 silenced with pSM2c-shITGA4
Method: (§1) Cells were incubated for 90 min at 37° C., washed with PBS, pelleted by centrifugation and resuspended in PBS (200 μl) for flow cytometric analysis. % Max mean fluorescence intensity (MFI) was plotted against the log concentration of BOP and the data fitted to a ligand binding-sigmoidal dose-response curve and IC50 values obtained from graphs.

[2] = test system: WBC, LSK and LSKSLAM in PB; assay: Mobilization of HSC and progenitors into peripheral blood; type: in vivo, mouse
Method: For mobilization experiments, all mice received subcutaneous injections at 100 μl/10 gm body weight and PB was harvested by throat bleed using EDTA coated syringes.

[3] = test system: α4β1 and α9β1 integrins binding to VCAM-1 and Opn; conditions: in vitro; cited from earlier work
[4] = test system: α9β1 and α4β1 integrin binding on HSC and progenitors (LSK and LSKSLAM); assay: Competitive displacement of R-BC154 binding to LSK and LSKSLAM cells; type: cell-based, mouse; conditions: 500 nM, 1 mM Ca2+/Mg2+
Method: as §1

[5] = molecular target: T2, α4β1 integrin (Homo sapiens, UniProt P05556+P13612); assay: Competitive inhibition of R-BC154 binding to α4β1 LN18 cells; conditions: 1 mM Ca2+/Mg2+
T2 construct: expressed in transfected cells; host or cells: human glioblastoma LN18 (ATCC CRL-2610), retrovirally transduced
Method: as §1

[6] = molecular target: α9β1 (Homo sapiens, UniProt P05556+Q13797); conditions: Pepinsky et al (2002) FIG. 4b; cited from earlier work
[7] = molecular target: T3, human integrin α9β1 (overexpressed in LN18 α9β1 cells, α4-silenced; pMSCV-hITGA9-IRES-hITGB1) (Homo sapiens, UniProt P05556+Q13797); assay: Competitive inhibition of R-BC154 (50 nM) binding to LN18 α9β1 cells by BOP, flow cytometry
T3 construct: expressed in transfected cells; host or cells: LN18 human glioblastoma cells (ATCC CRL-2610), retrovirally transduced with pMSCV-hITGA9-IRES-hITGB1, α4 silenced with pSM2c-shITGA4
Method: (§2) Stable LN18 cells over-expressing human integrin α4β1 and α9β1 were generated via retroviral transduction of human glioblastoma LN18 cell lines. Silencing of background α4 expression in parental and α9β1 transduced LN18 cells was achieved by retroviral vector delivery of α4 shRNA.
(§3) (a) Chemical structure of α9β1/α4β1 integrin antagonist BOP (2). […] Data is mean±SEM (n=3) (d) Analysis of the WBC, (e) LSK and (f) LSKSLAM content in the peripheral blood of mice treated with BOP (10 mg/kg) over 90 mins. Data is mean±SEM (n=5 per time point).
(§4) Flow cytometric analysis was performed using an LSR II (BD Biosciences) as previously described in J. Grassinger, et al Blood, 2009, 114, 49-59. […] For BM and PB analysis, up to 5×10^6 cells were analysed at a rate of 10-20 k cell events/sec. For analysis of PB LSKSLAM, up to 1×10^6 events were saved. Cell sorting was performed on a Cytopeia Influx (BD) as previously described in J. Grassinger, et al.
(§5) Stable LN18 cells ((ATCC number: CRL-2610) over-expressing integrin α4β1 (LN18 α4β1) or α9β1 (LN18 α9β1)) were generated by retroviral transduction using the pMSCV-hITGA4-IRES-hITGB1 and pMSCV-hITGA9-IRES-hITGB1 vectors as previously described in J Grassinger, et al Blood, 2009, 114, 49-59 and were maintained in DMEM supplemented with 2 mM L-glutamate in 10% FBS. […]

[8] = molecular target: T4, human integrin α4β1 (overexpressed in LN18 α4β1 cells; pMSCV-hITGA4-IRES-hITGB1) (Homo sapiens, UniProt P05556+P13612); assay: Competitive inhibition of R-BC154 (50 nM) binding to LN18 α4β1 cells by BOP, flow cytometry
T4 construct: expressed in transfected cells; host or cells: LN18 human glioblastoma cells (ATCC CRL-2610), retrovirally transduced with pMSCV-hITGA4-IRES-hITGB1
Method: as §2, §3, §4, §5

Sequence of α9β1 (Q13797 30-1035): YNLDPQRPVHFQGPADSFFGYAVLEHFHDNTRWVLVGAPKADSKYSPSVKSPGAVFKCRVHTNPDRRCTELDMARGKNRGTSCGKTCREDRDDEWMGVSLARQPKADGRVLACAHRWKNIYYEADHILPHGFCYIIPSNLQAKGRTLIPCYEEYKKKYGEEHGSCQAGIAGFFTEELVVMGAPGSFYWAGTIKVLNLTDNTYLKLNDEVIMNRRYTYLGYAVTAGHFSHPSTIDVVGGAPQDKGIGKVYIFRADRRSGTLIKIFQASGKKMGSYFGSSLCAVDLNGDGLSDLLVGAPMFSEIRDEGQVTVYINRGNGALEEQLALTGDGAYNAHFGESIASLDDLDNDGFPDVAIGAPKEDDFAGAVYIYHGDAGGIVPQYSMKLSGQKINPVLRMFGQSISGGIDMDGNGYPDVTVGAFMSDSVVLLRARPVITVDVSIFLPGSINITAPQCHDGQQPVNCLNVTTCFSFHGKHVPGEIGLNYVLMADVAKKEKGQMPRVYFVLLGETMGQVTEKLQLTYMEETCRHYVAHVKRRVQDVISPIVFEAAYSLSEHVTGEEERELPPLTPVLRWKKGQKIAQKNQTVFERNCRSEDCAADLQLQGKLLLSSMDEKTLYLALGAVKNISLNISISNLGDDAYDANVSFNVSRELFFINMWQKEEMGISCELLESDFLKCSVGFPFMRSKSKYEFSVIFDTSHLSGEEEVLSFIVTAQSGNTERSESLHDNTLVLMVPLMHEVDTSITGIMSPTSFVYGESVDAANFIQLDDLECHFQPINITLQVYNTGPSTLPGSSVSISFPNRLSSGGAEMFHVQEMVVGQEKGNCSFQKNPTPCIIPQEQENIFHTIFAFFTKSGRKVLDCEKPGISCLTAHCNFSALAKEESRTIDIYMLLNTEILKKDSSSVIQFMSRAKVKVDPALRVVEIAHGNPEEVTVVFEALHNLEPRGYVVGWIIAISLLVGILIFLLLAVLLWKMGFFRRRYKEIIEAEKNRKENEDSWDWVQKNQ
Sequence of α9β1 (P05556 21-798): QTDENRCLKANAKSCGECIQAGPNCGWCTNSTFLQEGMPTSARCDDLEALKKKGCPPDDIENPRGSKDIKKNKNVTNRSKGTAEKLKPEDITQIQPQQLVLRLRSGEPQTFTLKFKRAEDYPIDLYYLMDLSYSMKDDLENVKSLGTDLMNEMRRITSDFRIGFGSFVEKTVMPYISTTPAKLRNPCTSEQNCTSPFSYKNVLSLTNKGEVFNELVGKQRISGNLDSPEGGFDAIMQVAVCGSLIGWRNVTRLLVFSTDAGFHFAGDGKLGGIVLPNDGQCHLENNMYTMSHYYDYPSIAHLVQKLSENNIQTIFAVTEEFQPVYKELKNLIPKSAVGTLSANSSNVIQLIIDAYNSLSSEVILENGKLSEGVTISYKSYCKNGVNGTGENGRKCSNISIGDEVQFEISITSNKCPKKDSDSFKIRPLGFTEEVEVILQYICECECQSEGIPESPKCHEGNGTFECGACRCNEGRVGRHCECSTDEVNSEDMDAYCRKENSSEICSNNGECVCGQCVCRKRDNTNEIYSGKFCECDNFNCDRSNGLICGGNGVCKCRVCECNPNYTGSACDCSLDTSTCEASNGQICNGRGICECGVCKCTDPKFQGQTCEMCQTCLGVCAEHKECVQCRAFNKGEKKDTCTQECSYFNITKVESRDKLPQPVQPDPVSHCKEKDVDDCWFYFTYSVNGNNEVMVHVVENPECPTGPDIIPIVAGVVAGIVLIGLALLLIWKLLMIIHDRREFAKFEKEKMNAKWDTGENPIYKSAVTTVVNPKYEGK
T3 sequence (Q13797 30-1035): as the sequence (Q13797 30-1035) above
T3 sequence (P05556 21-798): as the sequence (P05556 21-798) above
T1 sequence (Q13797 30-1035): as the sequence (Q13797 30-1035) above
T1 sequence (P05556 21-798): as the sequence (P05556 21-798) above
T4 sequence (P13612 34-1032): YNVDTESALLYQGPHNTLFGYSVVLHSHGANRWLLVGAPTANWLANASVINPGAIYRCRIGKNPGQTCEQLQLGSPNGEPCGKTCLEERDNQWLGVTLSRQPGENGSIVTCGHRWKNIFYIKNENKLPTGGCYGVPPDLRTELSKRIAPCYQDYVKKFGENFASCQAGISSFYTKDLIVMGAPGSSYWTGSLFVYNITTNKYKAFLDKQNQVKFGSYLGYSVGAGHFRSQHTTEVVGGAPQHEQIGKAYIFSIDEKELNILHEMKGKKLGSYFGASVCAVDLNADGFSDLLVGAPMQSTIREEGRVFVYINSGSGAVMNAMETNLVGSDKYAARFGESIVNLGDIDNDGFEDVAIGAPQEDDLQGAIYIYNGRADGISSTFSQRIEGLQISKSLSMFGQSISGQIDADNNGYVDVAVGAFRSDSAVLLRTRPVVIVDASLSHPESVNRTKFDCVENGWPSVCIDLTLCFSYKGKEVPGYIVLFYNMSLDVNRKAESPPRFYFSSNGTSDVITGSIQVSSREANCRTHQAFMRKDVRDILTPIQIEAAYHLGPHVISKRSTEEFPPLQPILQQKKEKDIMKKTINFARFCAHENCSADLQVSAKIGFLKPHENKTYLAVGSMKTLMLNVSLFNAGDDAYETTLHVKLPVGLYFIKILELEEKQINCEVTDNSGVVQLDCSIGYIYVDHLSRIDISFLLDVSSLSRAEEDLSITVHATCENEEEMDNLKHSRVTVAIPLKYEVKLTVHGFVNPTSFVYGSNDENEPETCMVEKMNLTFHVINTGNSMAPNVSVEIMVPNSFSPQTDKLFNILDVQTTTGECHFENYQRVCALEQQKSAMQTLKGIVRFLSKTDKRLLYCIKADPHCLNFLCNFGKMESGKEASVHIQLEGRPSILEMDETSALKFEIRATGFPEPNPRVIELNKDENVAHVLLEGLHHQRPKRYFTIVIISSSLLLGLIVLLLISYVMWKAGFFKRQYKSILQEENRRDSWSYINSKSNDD
T4 sequence (P05556 21-798): as the sequence (P05556 21-798) above
T2 sequence (P13612 34-1032): as the sequence (P13612 34-1032) above
T2 sequence (P05556 21-798): as the sequence (P05556 21-798) above

| Compound | inhibition of α9β1 integrin (competitive inhibition of R-BC154 binding) [1] | PB WBC, LSK and LSKSLAM compared to the saline control ([2]; 10 mg/kg, C57BL/6 mice, up to 90 mins) | mobilization of HSC with long-term multi-lineage engraftment potential ([2]; summary statement) | inhibition of binding of α4β1 and α9β1 integrins to VCAM-1 and Opn [3] | inhibition of α9β1 and α4β1 integrin binding on HSC and progenitors (displacement of R-BC154) [4] | inhibition of α4β1 integrin (competitive inhibition of R-BC154 binding) [5] | off-rates for α9β1 compared to α4β1 [6] | IC50 [7] | IC50 [8] |
| --- | --- | --- | --- | --- | --- | --- | --- | --- | --- |
| O=C(O)[C@H](Cc1ccc(OC(=O)N2CCCC2)cc1)NC(=O)[C@@H]1CCCN1S(=O)(=O)c1ccccc1 [BOP, N-(Benzenesulfonyl)-L-prolyl-L-O-(1-pyrrolidinylcarbonyl)tyrosine] | potent inhibitor | significant increases | effectively and rapidly mobilized | nanomolar inhibitory potencies; also recorded: can inhibit | effectively inhibited | potent inhibitor | significantly reduced off-rates |  |  |
| O=C(O)[C@H](Cc1ccc(OC(=O)N2CCCC2)cc1)NC(=O)[C@@H]1CCCN1S(=O)(=O)c1ccccc1 [BOP (2), N-(Benzenesulfonyl)-L-prolyl-L-O-(1-pyrrolidinylcarbonyl)tyrosine] |  |  |  |  |  |  |  | 2.62 nM | 2.39 nM |
